Test results reported in patent US20250325677A1, “STAT6 DEGRADERS” (Gilead Sciences, Inc., priority 2024, published 2025).

Biological target: STAT6 (Homo sapiens (Human), UniProt P42226)
Experiment: STAT6 degrader assay (HiBiT, HeLa LgBiT clone 4.14)
Assay type: cell-based
Conditions: HeLa LgBiT clone 4.14, 4-24 h; for DC50: geometric mean, given for compounds with >80% Emax, read-out: STAT6 degradation DC50; for Emax: read-out: STAT6 degradation Emax (%)
Protocol: This was a HiBit based assay. A HeLa cell line stably transfected with a small protein, LgBit (Large Bit) was obtained from Promega. These cells express endogenous STAT6. A small 11 amino acid gene sequence (HiBiT) was inserted in the STAT6 gene using CRISPR technology. Once STAT6 protein is expressed in the cells, the HiBiT sequence will bind the LgBit in the cells resulting in a functional NanoBiT protein, giving a luminescent tag to STAT6, see FIG. 2.
Single cell clones were prepared and the clone 4.14 was selected for the assay based on that clone showing high luminescence, high STAT6 phosphorylation upon stimulation with IL-4, and inhibition of luminescence when cells were treated with STAT6 siRNA.
HeLa LgBiT clone 4.14 cells were suspended in DMEM with 10% FCS, 1% Pen/Strep, Na-pyrovate and Hygromycin B, at a concentration of 1.25*105 cells pr mL. 5000 cells were added pr well of a 384 well plate and 20 nL of compound was added by Echo® liquid handler. NN6394A (terfenadine, a toxic compound) was added to control wells at 50 μM concentration to establish the assay window. In these wells the cells are dead which equals 100% degradation of STAT6.
After 4-24 h of incubation at 37° C. under 5% CO2/95% air, 5 μL substrate (Nano-GLO®) was added to the wells and the plates were centrifuged and incubated for 0.5 h.
The luminescence in the wells as a measure of non-degraded STAT6 was measured in a plate reader (BMG Pherastar FSX). The measured DC50 (in nM) was determined.
The dose-response curves Examples 3p1, 3e50, 3e17, and 3e51 are shown below (where percent degradation is plotted vs. test compound concentration in M on a log-scale).

Chain of STAT6 (P42226 whole entry): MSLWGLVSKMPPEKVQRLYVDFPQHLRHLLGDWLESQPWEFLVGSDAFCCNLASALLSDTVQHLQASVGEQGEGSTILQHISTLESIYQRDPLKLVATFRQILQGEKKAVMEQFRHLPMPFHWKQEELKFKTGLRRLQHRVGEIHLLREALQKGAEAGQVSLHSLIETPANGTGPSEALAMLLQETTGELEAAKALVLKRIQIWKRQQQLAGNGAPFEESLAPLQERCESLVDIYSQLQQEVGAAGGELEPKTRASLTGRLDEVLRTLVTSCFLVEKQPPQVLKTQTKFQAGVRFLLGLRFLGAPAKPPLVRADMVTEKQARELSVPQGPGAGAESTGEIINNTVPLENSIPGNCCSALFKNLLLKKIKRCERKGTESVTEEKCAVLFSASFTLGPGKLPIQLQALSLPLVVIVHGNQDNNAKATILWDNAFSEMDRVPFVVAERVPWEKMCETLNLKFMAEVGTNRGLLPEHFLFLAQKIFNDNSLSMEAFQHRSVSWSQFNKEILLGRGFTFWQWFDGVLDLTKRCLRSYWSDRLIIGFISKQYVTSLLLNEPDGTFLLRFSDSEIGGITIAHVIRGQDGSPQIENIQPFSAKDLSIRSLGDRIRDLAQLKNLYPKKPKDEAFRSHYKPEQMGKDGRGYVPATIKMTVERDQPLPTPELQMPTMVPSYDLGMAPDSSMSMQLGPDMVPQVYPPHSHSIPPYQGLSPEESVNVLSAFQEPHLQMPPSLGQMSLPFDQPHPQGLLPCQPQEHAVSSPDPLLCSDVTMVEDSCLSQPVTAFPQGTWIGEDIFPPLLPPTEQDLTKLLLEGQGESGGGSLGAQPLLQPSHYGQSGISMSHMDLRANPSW

DC50 [nM] | Emax [%] | Structure (SMILES)
0.9 |  | Cc1cc(C(=O)N2CCC(CN3CCN(Cc4ccc5c(c4)n(C)c(=O)n5C4CCC(=O)NC4=O)CC3)CC2)cc(C)c1C1=CCN(Cc2cc3c(-c4ccc(N)nc4)ccnc3n2C)CC1 (stereo not shown) [Example 3e12, 3-(5-((4-((1-(4-(1-((4-(6-aminopyridin-3-yl)-1-methyl-1H-pyrrolo[2,3-b]pyridin-2-yl)methyl)-1,2,3,6-tetrahydropyridin-4-yl)-3,5-dimethylbenzoyl)piperidin-4-yl)methyl)piperazin-1-yl)methyl)-3-methyl-2-oxo-2,3-dihydro-1H-benzo[d]imidazol-1-yl)piperidine-2,6-dione]
1.1 |  | C[C@H]1CN(Cc2ccc3c(c2)n(C)c(=O)n3C2CCC(=O)NC2=O)CCN1CC1CCN(C(=O)c2ccc(N3CCN(Cc4cc5c(-c6ccc(N)nc6)ccnc5n4C)CC3)cc2)CC1 (stereo partly drawn) [Example 3h14, 3-(5-(((S)-4-((1-(4-(4-((4-(6-aminopyridin-3-yl)-1-methyl-1H-pyrrolo[2,3-b]pyridin-2-yl)methyl)piperazin-1-yl)benzoyl)piperidin-4-yl)methyl)-3-methylpiperazin-1-yl)methyl)-3-methyl-2-oxo-2,3-dihydro-1H-benzo[d]imidazol-1-yl)piperidine-2,6-dione]
 | 40 to 50 | CNc1ccc(-c2ccnc3c2cc([C@H](C)N2CC=C(c4c(C)cc(C(=O)N5CCC(CN6CCN(c7ccc8c(c7)C7(CC7)C(=O)N8C7CCC(=O)NC7=O)C[C@@H]6C)CC5)cc4F)CC2)n3C)cn1 (stereo partly drawn) [Example 3h19, 3-(5′-((S)-4-((1-(3-fluoro-5-methyl-4-(1-((S)-1-(1-methyl-4-(6-(methylamino)pyridin-3-yl)-1H-pyrrolo[2,3-b]pyridin-2-yl)ethyl)-1,2,3,6-tetrahydropyridin-4-yl)benzoyl)piperidin-4-yl)methyl)-3-methylpiperazin-1-yl)-2′-oxospiro[cyclopropane-1,3′-indolin]-1′-yl)piperidine-2,6-dione]
 | 50 to 60 | C[C@@H]1CN(Cc2ccc3c(c2)n(C)c(=O)n3C2CCC(=O)NC2=O)CCN1CC1CCN(C(=O)c2ccc(C3CCN(Cc4cc5c(-c6ccc(N)nc6)ccnc5n4C)CC3)cc2)CC1 (stereo partly drawn) [Example 3e8, 3-(5-(((R)-4-((1-(4-(1-((4-(6-aminopyridin-3-yl)-1-methyl-1H-pyrrolo[2,3-b]pyridin-2-yl)methyl)piperidin-4-yl)benzoyl)piperidin-4-yl)methyl)-3-methylpiperazin-1-yl)methyl)-3-methyl-2-oxo-2,3-dihydro-1H-benzo[d]imidazol-1-yl)piperidine-2,6-dione]
 | 30 to 40 | Cn1c(CN2CCC(c3ccc(C(=O)N4CCC(Cn5cc(-c6ccc7c(c6)n(C)c(=O)n7C6CCC(=O)NC6=O)cn5)CC4)cc3)CC2)cc2c(-c3ccc4[nH]ncc4c3)ccnc21 (stereo not shown) [Example 3l3, 3-(5-(1-((1-(4-(1-((4-(1H-indazol-5-yl)-1-methyl-1H-pyrrolo[2,3-b]pyridin-2-yl)methyl)piperidin-4-yl)benzoyl)piperidin-4-yl)methyl)-1H-pyrazol-4-yl)-3-methyl-2-oxo-2,3-dihydro-1H-benzo[d]imidazol-1-yl)piperidine-2,6-dione]
 | 20 to 30 | C[C@H]1CN(Cc2ccc3c(c2)n(C2CC2)c(=O)n3C2CCC(=O)N(C)C2=O)CCN1CC1CCN(C(=O)c2ccc(C3CCN([C@@H](C)c4cc5c(-c6ccc(N)nc6)ccnc5n4C)CC3)cc2)CC1 (stereo partly drawn) [Example 3h28, 3-(5-(((S)-4-((1-(4-(1-((S)-1-(4-(6-aminopyridin-3-yl)-1-methyl-1H-pyrrolo[2,3-b]pyridin-2-yl)ethyl)piperidin-4-yl)benzoyl)piperidin-4-yl)methyl)-3-methylpiperazin-1-yl)methyl)-3-cyclopropyl-2-oxo-2,3-dihydro-1H-benzo[d]imidazol-1-yl)-1-methylpiperidine-2,6-dione]
1.6 |  | Cc1cc(C(=O)N2CCC(CN3CCN(Cc4ccc5c(c4)n(C4CC4)c(=O)n5[C@H]4CCC(=O)NC4=O)C[C@@H]3C)CC2)cc(F)c1C1=CCN([C@@H](C)c2cc3c(-c4ccc(N)nc4)ccnc3n2C)CC1 (single isomer, unassigned) [Example 3h16]
